Activity calls are given as the source filed them.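 How the source made its calls: active means statistically significant rise in LC3 puncta area per cell versus the same autophagy inducer given alone; inactive means the rest.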

Assay [1] in a line: autophagy inducers by MAP1LC3 foci formation, imaging, murine bone marrow-derived macrophages, green fluorescent protein-tagged MAP1LC3 (AID 1963955). The conditions noted are these: mouse BMDM GFP-LC3 puncta imaging, 4 h, stronger effect = higher value.
For assay [2], the system named is mouse BMDM GFP-LC3 puncta imaging, 4 h. Described as above.

On to `CCC(C)(C)C(=O)C(=O)N1CCCC[C@H]1C(=O)N[C@H](CCc1ccc(OC)cc1)C(=O)N1[C@@H]2CC[C@H]1CC(Nc1nc(NCCc3ccccc3)nc(N3CCn4ncnc4C3)n1)C2` (stereo not given in full), for which the LC3 puncta area per cell is 5.15 um2/cell (inactive) in assay [1] (at 20 µM, no co-treatment); 10.8 um2/cell (inactive) in assay [1] (at 20 µM, with HBSS); 5.34 um2/cell (inactive) in assay [1] (at 40 µM, no co-treatment); 11.1 um2/cell in assay [1] (at 40 µM, with HBSS).
For `CS(C)=O`, the LC3 puncta area per cell is 7.38 um2/cell (inactive) in assay [1] (no co-treatment) and 9.2 um2/cell in assay [1] (with HBSS).
For `CCC(C)(C)C(=O)C(=O)N1CCCC[C@H]1C(=O)N[C@H](CCc1ccc(OC)cc1)C(=O)N1[C@@H]2CC[C@H]1CC(Nc1nc(NCCc3sc(N)nc3C)nc(N3CCn4ncnc4C3)n1)C2` (stereo not given in full), the EC50 in assay [2] (no co-treatment, at 20 µM) is 44.6 µM; in assay [2] (no co-treatment, at 40 µM), 44.6 µM; in assay [2] (with HBSS, at 20 µM), 22.7 µM; in assay [2] (with HBSS, at 40 µM) it was 22.7 µM.
